Measured values published in patent publication US4550186A, “Binuclear copper (II) carboxylates formed from amine-carboxyboranes” (Duke University, priority 1983, dated 1985).
pIC50: −log10 of the molar value.

Biological target: T1, transfer ribonucleic acid polymerase (Mus musculus, UniProt B2RXC6+P59470)
T1 sequence (B2RXC6 1-1390): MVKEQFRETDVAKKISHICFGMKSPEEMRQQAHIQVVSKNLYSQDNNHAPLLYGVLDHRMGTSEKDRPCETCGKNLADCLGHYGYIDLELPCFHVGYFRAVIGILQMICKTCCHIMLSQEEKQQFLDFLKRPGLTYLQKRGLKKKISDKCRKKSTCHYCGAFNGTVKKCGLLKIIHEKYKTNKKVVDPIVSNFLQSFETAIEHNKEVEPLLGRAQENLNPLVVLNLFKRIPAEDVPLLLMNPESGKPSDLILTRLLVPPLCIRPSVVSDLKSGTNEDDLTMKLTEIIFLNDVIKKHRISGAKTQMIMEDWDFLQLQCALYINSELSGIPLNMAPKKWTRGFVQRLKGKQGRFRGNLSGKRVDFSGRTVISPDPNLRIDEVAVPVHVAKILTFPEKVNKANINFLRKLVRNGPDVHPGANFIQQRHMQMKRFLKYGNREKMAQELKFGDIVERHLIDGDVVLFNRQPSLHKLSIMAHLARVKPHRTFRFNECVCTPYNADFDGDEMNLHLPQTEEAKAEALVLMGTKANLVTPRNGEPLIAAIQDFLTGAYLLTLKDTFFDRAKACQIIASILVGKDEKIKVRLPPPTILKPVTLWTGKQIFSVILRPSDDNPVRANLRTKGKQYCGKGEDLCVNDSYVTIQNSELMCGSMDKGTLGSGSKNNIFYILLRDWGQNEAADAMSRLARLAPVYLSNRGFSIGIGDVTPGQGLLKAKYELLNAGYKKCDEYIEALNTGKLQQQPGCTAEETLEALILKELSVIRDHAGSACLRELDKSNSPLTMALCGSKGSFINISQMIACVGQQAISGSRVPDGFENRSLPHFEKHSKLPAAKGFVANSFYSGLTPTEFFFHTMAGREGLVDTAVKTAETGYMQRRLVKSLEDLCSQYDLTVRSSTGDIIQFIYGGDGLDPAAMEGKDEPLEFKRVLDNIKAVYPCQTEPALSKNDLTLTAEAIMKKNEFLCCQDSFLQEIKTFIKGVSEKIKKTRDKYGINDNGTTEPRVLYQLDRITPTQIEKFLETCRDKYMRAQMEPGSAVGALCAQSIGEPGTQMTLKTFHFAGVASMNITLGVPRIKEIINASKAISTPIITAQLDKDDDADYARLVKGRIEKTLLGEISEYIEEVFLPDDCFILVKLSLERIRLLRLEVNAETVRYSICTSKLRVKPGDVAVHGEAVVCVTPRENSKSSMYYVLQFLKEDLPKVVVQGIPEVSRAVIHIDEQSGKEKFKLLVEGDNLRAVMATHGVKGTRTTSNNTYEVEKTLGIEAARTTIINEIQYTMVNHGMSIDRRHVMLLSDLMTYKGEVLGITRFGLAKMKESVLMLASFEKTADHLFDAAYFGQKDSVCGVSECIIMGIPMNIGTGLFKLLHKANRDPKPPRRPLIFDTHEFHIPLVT
T1 sequence (P59470 1-1133): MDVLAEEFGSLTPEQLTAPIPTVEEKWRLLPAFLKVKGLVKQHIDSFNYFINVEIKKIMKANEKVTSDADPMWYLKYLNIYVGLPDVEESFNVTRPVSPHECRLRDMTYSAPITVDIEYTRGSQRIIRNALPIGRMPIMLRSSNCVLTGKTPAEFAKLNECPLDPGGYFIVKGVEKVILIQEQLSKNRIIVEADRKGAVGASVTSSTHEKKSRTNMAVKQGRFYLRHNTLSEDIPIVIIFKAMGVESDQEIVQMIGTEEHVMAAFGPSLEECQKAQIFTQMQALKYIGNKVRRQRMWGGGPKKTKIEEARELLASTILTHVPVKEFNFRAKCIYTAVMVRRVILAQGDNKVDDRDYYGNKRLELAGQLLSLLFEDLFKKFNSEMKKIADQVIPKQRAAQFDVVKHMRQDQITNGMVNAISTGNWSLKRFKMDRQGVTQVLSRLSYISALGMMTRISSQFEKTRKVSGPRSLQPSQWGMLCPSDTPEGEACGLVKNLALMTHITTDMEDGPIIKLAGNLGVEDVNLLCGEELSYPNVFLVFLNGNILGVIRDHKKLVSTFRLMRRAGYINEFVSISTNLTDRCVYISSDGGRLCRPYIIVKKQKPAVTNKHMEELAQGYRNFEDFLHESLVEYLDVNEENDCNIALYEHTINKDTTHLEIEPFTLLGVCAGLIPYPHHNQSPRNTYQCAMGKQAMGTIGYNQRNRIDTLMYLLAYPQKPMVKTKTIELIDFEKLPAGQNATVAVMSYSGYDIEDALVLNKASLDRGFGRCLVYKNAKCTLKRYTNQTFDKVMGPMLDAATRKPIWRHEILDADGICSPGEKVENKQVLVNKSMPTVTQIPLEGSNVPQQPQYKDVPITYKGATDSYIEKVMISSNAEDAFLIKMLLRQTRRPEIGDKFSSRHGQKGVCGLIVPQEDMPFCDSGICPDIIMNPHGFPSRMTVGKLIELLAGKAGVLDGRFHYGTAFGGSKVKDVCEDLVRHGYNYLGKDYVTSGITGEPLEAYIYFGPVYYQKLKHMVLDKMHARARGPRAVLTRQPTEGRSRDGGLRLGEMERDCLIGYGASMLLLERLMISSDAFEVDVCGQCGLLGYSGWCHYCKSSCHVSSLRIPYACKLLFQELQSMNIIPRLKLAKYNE
Assay: In vitro transfer ribonucleic acid polymerase activity
Type: biochemical
Settings: read-out: ID50, Transfer ribonucleic acid polymerase activity
Procedure: CF1 male mice (~30 g) were implanted with 2×10^6 Ehrlich ascites tumor cells, intraperitoneally on Day 0. Compound I was suspended by homogenation in 0.05% polysorbate.80-water and administered intraperitoneally at 10 and 20 mg/kg for 9 days to determine its effectiveness for inhibition of tumor growth. Mice were sacrificed on Day 10, and the ascites fluid was collected from the peritoneal cavity. The volume and ascrit (packed cell volume) were determined for each animal and the percent inhibition of tumor growth was calculated. For the metabolic studies, mice were treated on Days 8 and 9 with 10 mg/kg of Compound I, intraperitoneally. The animal was sacrificed on Day 10 and the ascites fluid harvested. The in vitro metabolic studies were performed at […] final concentration of Compound I.
In vitro and in vivo nuclear deoxyribonucleic acid polymerase activity was determined on isolated Ehrlich ascites cell nuclei. The incubation was that described by Sawada et al [Can. Res., 34, 3341 (1974)] except that [methyl-^3 H] deoxythymidine triphosphate (82.4 Ci/mmol) was used. The acid insoluble nucleic acid was collected on GF/F filters and counted. Nuclear ribonucleic acid polymerase activities were determined on enzymes isolated from nuclei. […] The acid insoluble ribonucleic acid was collected on nitrocellulose filters and counted.

How did the pIC50 turn out when “{Cu[(CH3)3 N.BH2 CO2 ]2.(CH3)3 N.BH2 COOH} [Compound I]” was run?
Its pIC50 is 3.36.
